Data published in patent US20200032269A1, “GENETICALLY MODIFIED CELL LINES FOR METABOLIC STUDIES” (Hennepin Healthcare Research Institute, priority 2017, published 2020).
Like-named read-outs stand apart in the source and are kept apart here.

What was measured:
CYP3A5 = CYP3A5 (Homo sapiens, UniProt P20815); conditions: FIG. 16 diagram; cited from earlier work
[1] = tested on: HuH-7 CYP3A5 *3/*3 cell line; assay: Midazolam and tacrolimus metabolism assay, parental HuH-7 cells
Protocol: (§1) To further characterize the cell lines, metabolism assays were performed to determine the effect of each genetic variant on metabolism. FIG. 11 illustrates a generalized representative assay. In this exemplary assay, a cell line is plated on a collagen I-coated plate (or in a well of a multi-well plate, etc.), layered with an extracellular-matrix-like hydrogel (e.g., […], Corning Life Sciences, Tewksbury, Mass.), induced with a suitable inducer (e.g., rifampin and phenytoin), then treated with the substrate MDZ. The MDZ substrate is converted by the metabolic processes of the cell line to 1-OH MDZ or 4-OH MDZ, which can be measured using, for example high performance liquid chromatography (HPLC). The assay can be altered depending on the substrate, cell line, genetic variant, and any other experimental conditions.
(§2) In this metabolism assay, all three exemplary cell lines and HuH-7 parental cell line were grown to confluency and then layered with […] (Corning Life Sciences, Tewksbury, Mass.). The cells were then induced with rifampicin and phenytoin for three days and treated with substrate Tac overnight. Cell culture media were collected after treatment and assayed for Tac disappearance using liquid chromatography-mass spectrometry.
(§3) HuH-7 and engineered cells were grown to confluence in 12 well BIOCOAT collagen I multi-well plates (Corning, Inc., Corning, N.Y.) for 3-4 weeks in DMEM. Cells were then overlaid with […] matrix (Corning, Inc., Corning, N.Y.) and then induced for four days by adding 100 μM phenytoin (USP) and 10 μM rifampicin to the cell culture, with media changed daily with inducers. On the fourth day, 500 μl of media was added to the cells with 100 μM phenytoin (USP) and 10 μM rifampicin with either equal volumes of methanol, as a negative control, or Midazolam (MDZ; Cerrilliant Corp., Round Rock, Tex.) diluted in methanol so that MDZ final concentration was 5 μM in cell culture media. Cells were incubated overnight, and media was collected and assayed for MDZ, 1-OH MDZ and 4-OH MDZ by high performance liquid chromatography.
(§4) To determine the metabolic function of the engineered cell lines, the cells were treated with MDZ at 1628 ng/mL (5 μM) in cell culture overnight. The following day, the cell culture media was harvested and analyzed by liquid chromatography/mass spectrometry (LC/MS) at the University of Minnesota Department of Experimental and Clinical Pharmacology to quantify the concentrations of MDZ and the metabolites 1-hydroxy-midazolam (1-OH MDZ) and 4-hydroxy-midazolam (4-OH MDZ).
(§5) Likewise, Tac was added to cells and analyzed by LC/MS at the University of Minnesota Department of Experimental and Clinical Pharmacology. […]

CYP3A4 = CYP3A4 (Homo sapiens, UniProt P08684); conditions: FIG. 16 diagram; cited from earlier work
Chain of CYP3A4 (P08684 whole entry): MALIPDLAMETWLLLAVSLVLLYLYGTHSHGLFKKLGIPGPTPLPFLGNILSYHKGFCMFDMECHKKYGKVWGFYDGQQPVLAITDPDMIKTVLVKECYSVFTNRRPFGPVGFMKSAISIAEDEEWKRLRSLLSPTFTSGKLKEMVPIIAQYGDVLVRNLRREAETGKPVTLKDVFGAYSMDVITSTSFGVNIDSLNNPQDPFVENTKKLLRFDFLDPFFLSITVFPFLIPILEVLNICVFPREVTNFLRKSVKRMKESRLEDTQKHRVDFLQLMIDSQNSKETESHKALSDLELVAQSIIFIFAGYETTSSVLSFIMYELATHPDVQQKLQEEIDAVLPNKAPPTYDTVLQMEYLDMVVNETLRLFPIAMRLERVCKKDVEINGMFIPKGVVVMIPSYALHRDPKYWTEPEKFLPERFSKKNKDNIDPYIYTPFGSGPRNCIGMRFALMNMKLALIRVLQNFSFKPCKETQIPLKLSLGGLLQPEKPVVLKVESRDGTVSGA

[2] = tested on: CYP3A5 *1/*3 sd cell line; assay: Midazolam and tacrolimus metabolism assay, CYP3A5 *1/*3 sd cells
Protocol: as §1, §2, §3, §4, §5

[3] = tested on: CYP3A5 *1/*3 pm cell line; assay: Midazolam and tacrolimus metabolism assay, CYP3A5 *1/*3 pm cells
Protocol: as §1, §2, §3, §4, §5

[4] = tested on: CYP3A5 *1/*1 dd cell line; assay: Midazolam and tacrolimus metabolism assay, CYP3A5 *1/*1 dd cells
Protocol: as §1, §2
HuH-7 and engineered cells were grown to confluence in 12 well BIOCOAT collagen I multi-well plates (Corning, Inc., Corning, N.Y.) for 3-4 weeks in DMEM. […]
as §4, §5

[5] = kidney transplant patients, cited from earlier work

Chain of CYP3A5 (P20815 whole entry): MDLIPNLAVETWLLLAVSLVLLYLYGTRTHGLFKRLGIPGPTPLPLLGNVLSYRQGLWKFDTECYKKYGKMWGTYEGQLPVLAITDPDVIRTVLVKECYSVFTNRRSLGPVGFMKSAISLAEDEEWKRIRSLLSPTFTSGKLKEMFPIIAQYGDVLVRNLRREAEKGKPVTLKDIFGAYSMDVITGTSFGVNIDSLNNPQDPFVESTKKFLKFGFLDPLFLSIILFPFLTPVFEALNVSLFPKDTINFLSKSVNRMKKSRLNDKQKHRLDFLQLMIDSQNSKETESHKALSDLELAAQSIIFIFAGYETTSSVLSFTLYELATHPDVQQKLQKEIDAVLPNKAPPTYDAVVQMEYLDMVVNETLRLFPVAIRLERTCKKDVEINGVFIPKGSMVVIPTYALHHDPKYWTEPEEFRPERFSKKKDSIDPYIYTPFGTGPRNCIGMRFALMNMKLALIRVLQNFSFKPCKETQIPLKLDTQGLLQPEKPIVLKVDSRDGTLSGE

Question: Which “inhibitory function on CYP3A5” value (CYP3A5) does the source give for `Cc1ccc(-c2c(-c3nn(C)c4ncnc(N5CC[C@H](N6CCCCC6)C5)c34)cnn2C)cc1` [CYP3CIDE] here?
Answer: The value was “mild inhibitory effect”.

Question: And the “inhibition of 1-OH MDZ production” value ([1]; 50 μM CYP3CIDE, HuH-7 cells, MDZ substrate, FIG. 19)?
Answer: Its value is “nearly completely inhibited”.

Question: And the “inhibition of 4-OH MDZ production” value ([1]; 50 μM CYP3CIDE, HuH-7 cells, MDZ substrate, FIG. 20)?
Answer: Its value is “inhibited”.

Question: And the “inhibitory function on CYP3A4” value (CYP3A4)?
Answer: The value was “strong inhibitor”.

Question: With `Cc1ncc2n1-c1ccc(Cl)cc1C(c1ccccc1F)=NC2` [Midazolam, midazolam] as the compound, how does the MDZ disappearance ([2]; CYP3A5 *1/*3 sd, FIG. 13, five biological replicates) read?
Answer: Its MDZ disappearance is “more efficiently than the parental HuH-7 cell line”.

Question: And the “Midazolam (ng/mL) No CYP3CIDE” value ([2]; CYP3A5 *1/*3 sd, start 5 μM MDZ, overnight, no CYP3CIDE, mean ± SD of six)?
Answer: The value was 971 ± 110 ng/mL.

Question: What about the “Midazolam (ng/mL) With CYP3CIDE” value ([2]; CYP3A5 *1/*3 sd, start 5 μM MDZ, overnight, with 50 μM CYP3CIDE, mean ± SD of six) of the same compound?
Answer: Its value is 1241 ± 64 ng/mL.

Question: What about the MDZ disappearance ([3]; CYP3A5 *1/*3 pm, FIG. 13, five biological replicates) of the same compound?
Answer: The MDZ disappearance was “more efficiently than the parental HuH-7 cell line”.

Question: What about the “Midazolam (ng/mL) No CYP3CIDE” value ([3]; CYP3A5 *1/*3 pm, start 5 μM MDZ, overnight, no CYP3CIDE, mean ± SD of six) of the same compound?
Answer: The value was 1130 ± 45 ng/mL.

Question: What about the “Midazolam (ng/mL) With CYP3CIDE” value ([3]; CYP3A5 *1/*3 pm, start 5 μM MDZ, overnight, with 50 μM CYP3CIDE, mean ± SD of six) of the same compound?
Answer: The value was 1224 ± 18 ng/mL.

Question: What about the “Midazolam (ng/mL) No CYP3CIDE” value ([1]; HuH-7 CYP3A5 *3/*3, start 5 μM (approximately 1629 ng/ml) MDZ, overnight, no CYP3CIDE, mean ± SD of six) of the same compound?
Answer: Its value is 1458 ± 62 ng/mL.

Question: And the “Midazolam (ng/mL) With CYP3CIDE” value ([1]; HuH-7 CYP3A5 *3/*3, start 5 μM (approximately 1629 ng/ml) MDZ, overnight, with 50 μM CYP3CIDE, mean ± SD of six)?
Answer: The value was 1534 ± 32 ng/mL.

Question: And the MDZ disappearance ([4]; FIG. 13, five biological replicates)?
Answer: Its MDZ disappearance is “the most MDZ disappearance”.

Question: And the “Midazolam (ng/mL) No CYP3CIDE” value ([4]; start 5 μM MDZ, overnight, no CYP3CIDE, mean ± SD of six)?
Answer: Its value is 724 ± 200 ng/mL.

Question: What about the “Midazolam (ng/mL) With CYP3CIDE” value ([4]; start 5 μM MDZ, overnight, with 50 μM CYP3CIDE, mean ± SD of six) of the same compound?
Answer: Its value is 1189 ± 90 ng/mL.

Question: With `C=CC[C@@H]1/C=C(\C)C[C@H](C)C[C@H](OC)[C@H]2O[C@@](O)(C(=O)C(=O)N3CCCC[C@H]3C(=O)O[C@H](/C(C)=C/[C@@H]3CC[C@@H](O)[C@H](OC)C3)[C@H](C)[C@@H](O)CC1=O)[C@H](C)C[C@@H]2OC` [Tac, tacrolimus] as the compound, how does the Tac disappearance ([2]; human, 13 ng/mL) read?
Answer: Its Tac disappearance is “more efficiently than the parental HuH-7 cell line”.

Question: What about the Tac disappearance ([3]; human, 13 ng/mL) of the same compound?
Answer: The Tac disappearance was “more efficiently than the parental HuH-7 cell line”.

Question: What about the “reduction in log-transformed dose-normalized troughs” value ([5]; one CYP3A5 *1 allele present) of the same compound?
Answer: Its value is 36%.

Question: And the “reduction in log-transformed dose-normalized troughs” value ([5]; two CYP3A5 *1 alleles present)?
Answer: Its value is 59%.
